Common to all, as to format: cell-based
One assay has as its target T1, hMC1-R (Homo sapiens, UniProt Q01726).
T1 construct: expressed in transfected cells; host or cells: CHO-K1
In words: cyclic AMP bioassay, hMC1-R.

Another assay concerns the target T2, hMC3-R (Homo sapiens, UniProt P41968).
T2 construct: expressed in transfected cells; host or cells: CHO-K1
In words: cyclic AMP bioassay, hMC3-R.

The next assay deals with T3, hMC4-R (Homo sapiens, UniProt P32245).
T3 construct: expressed in transfected cells; host or cells: CHO-K1
T3 sequence (P32245 whole entry): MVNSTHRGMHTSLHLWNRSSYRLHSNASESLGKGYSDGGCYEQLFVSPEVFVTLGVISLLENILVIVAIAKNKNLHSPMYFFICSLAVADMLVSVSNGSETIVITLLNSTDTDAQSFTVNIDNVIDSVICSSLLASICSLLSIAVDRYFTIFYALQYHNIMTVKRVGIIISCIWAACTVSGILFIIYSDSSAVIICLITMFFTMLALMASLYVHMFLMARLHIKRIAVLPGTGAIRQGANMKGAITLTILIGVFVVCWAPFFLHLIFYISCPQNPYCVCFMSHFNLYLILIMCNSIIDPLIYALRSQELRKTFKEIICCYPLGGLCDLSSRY
Briefly: cyclic AMP bioassay, hMC4-R.

For another assay, the target named is T4, hMC5-R (Homo sapiens, UniProt P33032).
T4 construct: expressed in transfected cells; host or cells: CHO-K1
T4 sequence (P33032 whole entry): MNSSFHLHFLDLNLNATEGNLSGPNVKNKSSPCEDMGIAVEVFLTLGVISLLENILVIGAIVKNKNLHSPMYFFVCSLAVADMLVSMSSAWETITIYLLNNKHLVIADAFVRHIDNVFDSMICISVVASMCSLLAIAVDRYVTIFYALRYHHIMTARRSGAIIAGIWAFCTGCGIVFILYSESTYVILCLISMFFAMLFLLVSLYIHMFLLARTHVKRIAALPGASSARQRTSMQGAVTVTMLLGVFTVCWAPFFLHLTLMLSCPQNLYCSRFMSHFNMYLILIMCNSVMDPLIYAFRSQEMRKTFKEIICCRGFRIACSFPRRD
Briefly: cyclic AMP bioassay, hMC5-R.

T2 sequence (P41968 whole entry): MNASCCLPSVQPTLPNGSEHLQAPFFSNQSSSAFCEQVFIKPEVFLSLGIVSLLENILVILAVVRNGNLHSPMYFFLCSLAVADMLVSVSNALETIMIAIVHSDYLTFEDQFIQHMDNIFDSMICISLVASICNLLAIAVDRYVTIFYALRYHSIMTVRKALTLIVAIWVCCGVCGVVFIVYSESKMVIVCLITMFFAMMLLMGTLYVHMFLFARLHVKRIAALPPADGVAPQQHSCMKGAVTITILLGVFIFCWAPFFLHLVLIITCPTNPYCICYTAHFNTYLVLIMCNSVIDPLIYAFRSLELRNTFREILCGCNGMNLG
T1 sequence (Q01726 whole entry): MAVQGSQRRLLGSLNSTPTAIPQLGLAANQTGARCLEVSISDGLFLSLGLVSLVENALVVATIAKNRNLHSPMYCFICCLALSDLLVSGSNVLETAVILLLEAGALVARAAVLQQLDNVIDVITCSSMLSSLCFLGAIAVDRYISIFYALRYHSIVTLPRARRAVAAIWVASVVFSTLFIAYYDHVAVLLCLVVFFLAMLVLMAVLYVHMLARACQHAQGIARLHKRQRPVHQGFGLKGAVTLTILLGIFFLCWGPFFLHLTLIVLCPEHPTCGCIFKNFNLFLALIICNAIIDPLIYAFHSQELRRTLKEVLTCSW
Protocol for hMC4-R: (§1) Intracellular cyclic AMP (cAMP) levels were determined by an electrochemiluminescence (ECL) assay (Meso Scale Discovery®, Gaithersburg, Md.; referred to hereinafter as MSD). […] Transgenic CHO-K1 cells stably expressing hMC receptor subtypes 1, 3, 4 or 5 were dispensed at a density of approximately 7,000 cells/well in 384-well Multi-Arrays plates (MSD) containing integrated carbon electrodes and coated with anti-CAMP antibody. Increasing concentrations of the test compounds were added and the cells were incubated for approximately 40 minutes at approximately 37° C. […] At the end of the second incubation period read buffer (Tris-buffered solution containing an ECL co-reactant and Triton X-100 at ph 7.8) was added and the cAMP levels in the cell lysates were immediately determined by ECL detection with a Sector Imager 6000 Reader® (MSD). Data were analyzed using a computer-assisted non-linear regression analysis (XL fit; IDBS) and reported as either an EC50 value or a Kb value.
(§2) The Kb value reflects the potency of an antagonist and is determined by Schild analysis. In brief, concentration-response curves of an agonist are carried out in the presence of increasing concentrations of an antagonist. […] It is calculated by extrapolating the line on a Schild plot to zero on the y-axis.
Protocol for hMC5-R: as §1, §2

As a reminder, the EC50 is the concentration at which the effect is half-maximal. A lower EC50 goes with a more potent agent. Consider `CCCC[C@H](NC(C)=O)C(=O)N[C@H]1CSSC[C@@H](C(=O)NCCOCCOCC(=O)NCCOCCOCC(=O)N[C@@H](Cc2ccc(O)cc2)C(=O)NCC(=O)N[C@@H](CCCNC(=N)N)C(=O)N[C@@H](CCCCN)C(=O)N[C@@H](CCCCN)C(=O)N[C@@H](CCCNC(=N)N)C(=O)N[C@@H](CCCNC(=N)N)C(=O)N[C@@H](CCC(N)=O)C(=O)N[C@@H](CCCNC(=N)N)C(=O)N[C@@H](CCCNC(=N)N)C(=O)N[C@@H](CCCNC(=N)N)C(N)=O)NC(=O)[C@H](Cc2c[nH]c3ccccc23)NC(=O)[C@H](CCCNC(=N)N)NC(=O)[C@@H](Cc2ccccc2)NC(=O)[C@H](Cc2c[nH]cn2)NC(=O)[C@@H](C)NC1=O`, for which the EC50 at hMC1-R was 4.7 nM; on hMC3-R, 4.56 nM; at hMC4-R, 0.634 nM; on hMC5-R, 147 nM.

As to `CCCC[C@H](NC(C)=O)C(=O)N[C@H]1CSSC[C@@H](C(=O)NCCC(=O)N[C@@H](Cc2ccc(O)cc2)C(=O)NCC(=O)N[C@@H](CCCNC(=N)N)C(=O)N[C@@H](CCCCN)C(=O)N[C@@H](CCCCN)C(=O)N[C@@H](CCCNC(=N)N)C(=O)N[C@@H](CCC(N)=O)C(=O)N[C@@H](CCCNC(=N)N)C(=O)N[C@@H](CCCNC(=N)N)C(=O)N[C@@H](CCCNC(=N)N)C(=O)N[C@@H](CCCNC(=N)N)C(N)=O)NC(=O)[C@H](Cc2c[nH]c3ccccc23)NC(=O)[C@H](CCCNC(=N)N)NC(=O)[C@@H](Cc2ccccc2)NC(=O)[C@H](Cc2c[nH]cn2)NC(=O)[C@@H](C)NC1=O`, the EC50 at hMC1-R stood at 5.9 nM; on hMC3-R, 7.73 nM; at hMC4-R it was 1.02 nM; on hMC5-R it was 2890 nM.

For `CCCC[C@H](NC(C)=O)C(=O)N[C@H]1CSSC[C@@H](C(=O)NCCC(=O)NCC(=O)N[C@@H](CCCNC(=N)N)C(=O)N[C@@H](CCCNC(=N)N)C(=O)N[C@@H](CCCNC(=N)N)C(=O)N[C@@H](CCCNC(=N)N)C(=O)N[C@@H](CCCNC(=N)N)C(=O)N[C@@H](CCC(N)=O)C(=O)N[C@@H](CCCNC(=N)N)C(=O)N[C@@H](CCCNC(=N)N)C(=O)N[C@@H](CCCNC(=N)N)C(N)=O)NC(=O)[C@H](Cc2c[nH]c3ccccc23)NC(=O)[C@H](CCCNC(=N)N)NC(=O)[C@@H](Cc2ccccc2)NC(=O)[C@H](Cc2c[nH]cn2)NC(=O)[C@@H](C)NC1=O`, the EC50 at hMC1-R is 0.481 nM; at hMC3-R, 7.32 nM; at hMC4-R it was 0.964 nM; at hMC5-R, 2010 nM.

As to `CCCC[C@H](NC(C)=O)C(=O)N[C@H]1CSSC[C@@H](C(=O)NCCC(=O)N[C@@H](CCCNC(=N)N)C(=O)N[C@@H](CCCNC(=N)N)C(=O)N[C@@H](CCCNC(=N)N)C(=O)N[C@@H](CCCNC(=N)N)C(=O)N[C@@H](CCCNC(=N)N)C(=O)N[C@@H](CCC(N)=O)C(=O)N[C@@H](CCCNC(=N)N)C(=O)N[C@@H](CCCNC(=N)N)C(=O)N[C@@H](CCCNC(=N)N)C(N)=O)NC(=O)[C@H](Cc2c[nH]c3ccccc23)NC(=O)[C@H](CCCNC(=N)N)NC(=O)[C@@H](Cc2ccccc2)NC(=O)[C@H](Cc2c[nH]cn2)NC(=O)[C@@H](C)NC1=O`, the EC50 at hMC1-R was 7.15 nM; at hMC3-R, 9.37 nM; at hMC4-R, 1.25 nM; on hMC5-R, 1570 nM.

Consider `CC(=O)N[C@H]1CSSC[C@@H](C(=O)N2CCC[C@H]2C(=O)N2CCC[C@H]2C(=O)N[C@@H](CCCCN)C(=O)N[C@@H](CC(=O)O)C(=O)NCCC(=O)N[C@@H](Cc2ccc(O)cc2)C(=O)NCC(=O)N[C@@H](CCCNC(=N)N)C(=O)N[C@@H](CCCCN)C(=O)N[C@@H](CCCCN)C(=O)N[C@@H](CCCNC(=N)N)C(=O)N[C@@H](CCCNC(=N)N)C(=O)N[C@@H](CCC(N)=O)C(=O)N[C@@H](CCCNC(=N)N)C(=O)N[C@@H](CCCNC(=N)N)C(=O)N[C@@H](CCCNC(=N)N)C(N)=O)NC(=O)[C@H](C)NC(=O)[C@H](Cc2cccc3ccccc23)NC(=O)[C@H](CCCNC(=N)N)NC(=O)[C@@H](Cc2ccc3ccccc3c2)NC(=O)[C@H](Cc2c[nH]cn2)NC(=O)[C@H](CCC(=O)O)NC1=O`, for which the EC50 at hMC1-R was 43.3 nM; on hMC5-R, 1290 nM. The Kb was 215 nM at hMC3-R and 5.87 nM on hMC4-R.

Regarding `CC(=O)N[C@H]1CSSC[C@@H](C(=O)N2CCC[C@H]2C(=O)N2CCC[C@H]2C(=O)N[C@@H](CCCCN)C(=O)N[C@@H](CC(=O)O)C(=O)NCCC(=O)N[C@@H](CCCNC(=N)N)C(=O)N[C@@H](CCCCN)C(=O)N[C@@H](CCCNC(=N)N)C(=O)N[C@@H](CCCNC(=N)N)C(=O)N[C@@H](CCCNC(=N)N)C(=O)N[C@@H](CCC(N)=O)C(=O)N[C@@H](CCCNC(=N)N)C(=O)N[C@@H](CCCNC(=N)N)C(=O)N[C@@H](CCCNC(=N)N)C(N)=O)NC(=O)[C@H](C)NC(=O)[C@H](Cc2cccc3ccccc23)NC(=O)[C@H](CCCNC(=N)N)NC(=O)[C@@H](Cc2ccc3ccccc3c2)NC(=O)[C@H](Cc2c[nH]cn2)NC(=O)[C@H](CCC(=O)O)NC1=O`, the values for the EC50 at hMC1-R and at hMC5-R were 33.1 nM and 1720 nM, respectively. In addition, the Kb at hMC3-R is 65.1 nM; on hMC4-R, 15.3 nM.

For the compound `CC(=O)N[C@H]1CSSC[C@@H](C(=O)N2CCC[C@H]2C(=O)N2CCC[C@H]2C(=O)N[C@@H](CCCCN)C(=O)N[C@@H](CC(=O)O)C(=O)NCCC(=O)N[C@@H](CCCNC(=N)N)C(=O)N[C@@H](CCCNC(=N)N)C(=O)N[C@@H](CCCNC(=N)N)C(=O)N[C@@H](CCCNC(=N)N)C(=O)N[C@@H](CCCNC(=N)N)C(=O)N[C@@H](CCCNC(=N)N)C(=O)N[C@@H](CCC(N)=O)C(=O)N[C@@H](CCCNC(=N)N)C(=O)N[C@@H](CCCNC(=N)N)C(=O)N[C@@H](CCCNC(=N)N)C(N)=O)NC(=O)[C@H](C)NC(=O)[C@H](Cc2cccc3ccccc23)NC(=O)[C@H](CCCNC(=N)N)NC(=O)[C@@H](Cc2ccc3ccccc3c2)NC(=O)[C@H](Cc2c[nH]cn2)NC(=O)[C@H](CCC(=O)O)NC1=O`, the EC50 on hMC1-R is 93 nM; on hMC5-R, above 10000 nM. Further, the Kb on hMC3-R stood at 71 nM; at hMC4-R it was 15.9 nM.

Take `CC(=O)N[C@H]1CSSC[C@@H](C(=O)N2CCC[C@H]2C(=O)N2CCC[C@H]2C(=O)N[C@@H](CCCCN)C(=O)N[C@@H](CC(=O)O)C(=O)NCCC(=O)N[C@@H](CCCNC(=N)N)C(=O)N[C@@H](CCCNC(=N)N)C(=O)N[C@@H](CCCCN)C(=O)N[C@@H](CCCNC(=N)N)C(=O)N[C@@H](CCCNC(=N)N)C(=O)N[C@@H](CCC(N)=O)C(=O)N[C@@H](CCCNC(=N)N)C(=O)N[C@@H](CCCNC(=N)N)C(=O)N[C@@H](CCCNC(=N)N)C(N)=O)NC(=O)[C@H](C)NC(=O)[C@H](Cc2cccc3ccccc23)NC(=O)[C@H](CCCNC(=N)N)NC(=O)[C@@H](Cc2ccc3ccccc3c2)NC(=O)[C@H](Cc2c[nH]cn2)NC(=O)[C@H](CCC(=O)O)NC1=O`: the EC50 at hMC1-R is 70.4 nM; at hMC5-R, above 10000 nM. Moreover, the Kb at hMC3-R was determined as 286 nM; at hMC4-R, 18.6 nM.

Regarding `CC(=O)N[C@H]1CSSC[C@@H](C(=O)N2CCC[C@H]2C(=O)N2CCC[C@H]2C(=O)N[C@@H](CCCCN)C(=O)N[C@@H](CC(=O)O)C(=O)NCCC(=O)N[C@@H](CCCNC(=N)N)C(=O)N[C@@H](CCCNC(=N)N)C(=O)N[C@@H](CCCNC(=N)N)C(=O)N[C@@H](CCCNC(=N)N)C(=O)N[C@@H](CCCNC(=N)N)C(=O)N[C@@H](CCC(N)=O)C(=O)N[C@@H](CCCNC(=N)N)C(=O)N[C@@H](CCCNC(=N)N)C(=O)N[C@@H](CCCNC(=N)N)C(N)=O)NC(=O)[C@H](C)NC(=O)[C@H](Cc2cccc3ccccc23)NC(=O)[C@H](CCCNC(=N)N)NC(=O)[C@@H](Cc2ccc3ccccc3c2)NC(=O)[C@H](Cc2c[nH]cn2)NC(=O)[C@H](CCC(=O)O)NC1=O`, the EC50 amounted to 36 nM on hMC1-R and 56.1 nM at hMC5-R. The Kb came out at 46.5 nM at hMC3-R and 11.4 nM on hMC4-R.

Consider `CC(=O)N[C@H]1CSSC[C@@H](C(=O)N2CCC[C@H]2C(=O)N2CCC[C@H]2C(=O)N[C@@H](CCCNC(=N)N)C(=O)N[C@@H](CC(=O)O)C(=O)NCCC(=O)N[C@@H](CCCNC(=N)N)C(=O)N[C@@H](CCCNC(=N)N)C(=O)N[C@@H](CCCNC(=N)N)C(=O)N[C@@H](CCCNC(=N)N)C(=O)N[C@@H](CCCNC(=N)N)C(=O)N[C@@H](CCC(N)=O)C(=O)N[C@@H](CCCNC(=N)N)C(=O)N[C@@H](CCCNC(=N)N)C(=O)N[C@@H](CCCNC(=N)N)C(N)=O)NC(=O)[C@H](C)NC(=O)[C@H](Cc2ccc3ccccc3c2)NC(=O)[C@H](CCCNC(=N)N)NC(=O)[C@@H](Cc2ccc3ccccc3c2)NC(=O)[C@H](Cc2c[nH]cn2)NC(=O)[C@H](CCC(=O)O)NC1=O`, for which the EC50 at hMC1-R is 39.7 nM; on hMC5-R, 501 nM. The Kb on hMC3-R was found to be 30.9 nM; at hMC4-R, 6.66 nM.

On to `CC(=O)N[C@H]1CSSC[C@@H](C(=O)N2CCC[C@H]2C(=O)N2CCC[C@H]2C(=O)N[C@@H](CCCCN)C(=O)N[C@@H](CC(=O)O)C(=O)NCCC(=O)N[C@@H](CCCNC(=N)N)C(=O)N[C@@H](CCCNC(=N)N)C(=O)N[C@@H](CCCNC(=N)N)C(=O)N[C@@H](CCCNC(=N)N)C(=O)N[C@@H](CCCNC(=N)N)C(=O)N[C@@H](CCC(N)=O)C(=O)N[C@@H](CCCNC(=N)N)C(=O)N[C@@H](CCCNC(=N)N)C(=O)N[C@@H](CCCNC(=N)N)C(N)=O)NC(=O)[C@H](C)NC(=O)[C@H](Cc2ccc3ccccc3c2)NC(=O)[C@H](CCCNC(=N)N)NC(=O)[C@@H](Cc2ccc3ccccc3c2)NC(=O)[C@H](Cc2c[nH]cn2)NC(=O)[C@H](CCC(=O)O)NC1=O`, for which the results for the EC50 at hMC1-R and at hMC5-R were 35.2 nM and 199 nM, respectively. Also, the Kb at hMC3-R is 22.9 nM; on hMC4-R it was 12.6 nM.

Regarding `CC(=O)N[C@H]1CSSC[C@@H](C(=O)N2CCC[C@H]2C(=O)N2CCC[C@H]2C(=O)N[C@@H](CCCCN)C(=O)N[C@@H](CC(=O)O)C(=O)NCCC(=O)N[C@@H](CCCNC(=N)N)C(=O)N[C@@H](CCCNC(=N)N)C(=O)N[C@@H](CCCCN)C(=O)N[C@@H](CCCNC(=N)N)C(=O)N[C@@H](CCCNC(=N)N)C(=O)N[C@@H](CCC(N)=O)C(=O)N[C@@H](CCCNC(=N)N)C(=O)N[C@@H](CCCNC(=N)N)C(=O)N[C@@H](CCCNC(=N)N)C(N)=O)NC(=O)[C@H](C)NC(=O)[C@H](Cc2ccc3ccccc3c2)NC(=O)[C@H](CCCNC(=N)N)NC(=O)[C@@H](Cc2ccc3ccccc3c2)NC(=O)[C@H](Cc2c[nH]cn2)NC(=O)[C@H](CCC(=O)O)NC1=O`, the values for the EC50 on hMC1-R and on hMC5-R were 88.2 nM and 514 nM, respectively. In addition, the values for the Kb at hMC3-R and at hMC4-R were 10.6 nM and 17.4 nM, respectively.

(Values after US20090232838A1, “Ligands of melanocortin receptors” (priority 2005, published 2009).)
